Columns and labels:
CK1α = target: T1, CK1α (Homo sapiens, UniProt P48729+Q96SW2); test: Western blot, degradation of substrate protein in hPBMCs; type: cell-based; details: Western blot, 24 hours of compound treatment, compounds tested at 50 nM and 500 nM (concentration for the table not stated)
T1 construct: effects of the compounds of the present disclosure on the expression of target proteins in cells; endogenous in cells; host or cells: human PBMCs (Milecell Biotechnologies)

IKZF1 = target: T2, IKZF1 (Homo sapiens, UniProt Q13422+Q96SW2); test: as above; type: cell-based; details: Western blot, 24 hours of compound treatment, compounds tested at 50 nM and 500 nM (concentration for the table not stated)
T2 construct: effects of the compounds of the present disclosure on the expression of target proteins in cells; endogenous in cells; host or cells: human PBMCs (Milecell Biotechnologies)
T2 sequence (Q13422 whole entry): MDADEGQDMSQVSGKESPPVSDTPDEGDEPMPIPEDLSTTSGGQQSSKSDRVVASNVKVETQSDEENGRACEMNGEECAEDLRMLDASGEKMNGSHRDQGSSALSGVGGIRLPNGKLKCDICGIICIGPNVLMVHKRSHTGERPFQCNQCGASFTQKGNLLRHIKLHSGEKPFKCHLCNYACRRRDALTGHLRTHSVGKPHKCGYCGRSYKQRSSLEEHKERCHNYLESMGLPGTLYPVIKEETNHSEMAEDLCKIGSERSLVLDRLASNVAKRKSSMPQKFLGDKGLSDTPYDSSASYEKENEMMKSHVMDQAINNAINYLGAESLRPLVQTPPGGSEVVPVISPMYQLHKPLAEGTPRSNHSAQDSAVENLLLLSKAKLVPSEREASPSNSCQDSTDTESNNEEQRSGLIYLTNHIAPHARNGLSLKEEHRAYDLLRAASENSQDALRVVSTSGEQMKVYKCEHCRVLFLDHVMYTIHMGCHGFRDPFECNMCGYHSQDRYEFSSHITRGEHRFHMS
T2 sequence (Q96SW2 whole entry): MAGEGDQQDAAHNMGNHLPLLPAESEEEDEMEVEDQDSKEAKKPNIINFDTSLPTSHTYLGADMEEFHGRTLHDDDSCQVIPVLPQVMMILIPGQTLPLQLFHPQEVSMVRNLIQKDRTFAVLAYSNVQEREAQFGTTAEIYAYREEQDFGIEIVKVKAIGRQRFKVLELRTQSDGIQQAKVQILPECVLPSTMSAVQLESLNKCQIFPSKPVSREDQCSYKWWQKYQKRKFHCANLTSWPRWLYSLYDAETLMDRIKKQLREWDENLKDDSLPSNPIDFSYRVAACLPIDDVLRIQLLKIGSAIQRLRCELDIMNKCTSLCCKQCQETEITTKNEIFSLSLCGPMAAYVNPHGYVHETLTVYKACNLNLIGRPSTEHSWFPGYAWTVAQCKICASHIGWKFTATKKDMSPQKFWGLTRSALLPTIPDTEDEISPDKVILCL
T2 sequence (Q16531 whole entry partner): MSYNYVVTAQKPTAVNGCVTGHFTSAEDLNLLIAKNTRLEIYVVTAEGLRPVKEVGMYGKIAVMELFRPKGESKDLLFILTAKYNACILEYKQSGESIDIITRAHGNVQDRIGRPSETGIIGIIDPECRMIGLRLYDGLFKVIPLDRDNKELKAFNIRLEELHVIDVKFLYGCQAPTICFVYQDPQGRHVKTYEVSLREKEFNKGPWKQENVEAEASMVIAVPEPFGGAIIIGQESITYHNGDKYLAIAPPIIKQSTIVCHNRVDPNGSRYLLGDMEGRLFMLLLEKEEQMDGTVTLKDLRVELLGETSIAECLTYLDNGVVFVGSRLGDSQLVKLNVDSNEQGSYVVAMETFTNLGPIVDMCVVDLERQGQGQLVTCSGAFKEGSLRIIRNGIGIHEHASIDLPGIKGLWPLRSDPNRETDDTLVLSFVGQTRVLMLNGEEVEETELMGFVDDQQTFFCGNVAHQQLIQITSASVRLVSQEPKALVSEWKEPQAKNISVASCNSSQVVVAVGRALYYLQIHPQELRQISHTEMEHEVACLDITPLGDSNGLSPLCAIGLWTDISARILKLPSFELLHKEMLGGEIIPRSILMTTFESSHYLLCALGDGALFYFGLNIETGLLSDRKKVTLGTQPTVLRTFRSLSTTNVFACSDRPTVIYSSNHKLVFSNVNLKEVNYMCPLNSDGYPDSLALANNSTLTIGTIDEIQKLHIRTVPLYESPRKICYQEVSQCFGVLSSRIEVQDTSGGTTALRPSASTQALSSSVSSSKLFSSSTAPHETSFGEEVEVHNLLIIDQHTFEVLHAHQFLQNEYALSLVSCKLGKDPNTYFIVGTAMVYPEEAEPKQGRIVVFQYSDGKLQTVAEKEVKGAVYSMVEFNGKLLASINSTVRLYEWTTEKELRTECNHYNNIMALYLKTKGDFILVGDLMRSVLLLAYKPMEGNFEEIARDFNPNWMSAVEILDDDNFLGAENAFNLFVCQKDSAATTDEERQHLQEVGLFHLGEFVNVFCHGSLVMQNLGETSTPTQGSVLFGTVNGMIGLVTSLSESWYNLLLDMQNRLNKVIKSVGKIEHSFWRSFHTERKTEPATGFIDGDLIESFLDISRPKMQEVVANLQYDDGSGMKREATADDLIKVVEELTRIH

IKZF2 = target: T3, IKZF2 (Homo sapiens, UniProt Q96SW2+Q9UKS7); test: as above; type: cell-based; details: Western blot, 24 hours of compound treatment, compounds tested at 50 nM and 500 nM (concentration for the table not stated)
T3 construct: effects of the compounds of the present disclosure on the expression of target proteins in cells; endogenous in cells; host or cells: human PBMCs (Milecell Biotechnologies)
T3 sequence (Q9UKS7 whole entry): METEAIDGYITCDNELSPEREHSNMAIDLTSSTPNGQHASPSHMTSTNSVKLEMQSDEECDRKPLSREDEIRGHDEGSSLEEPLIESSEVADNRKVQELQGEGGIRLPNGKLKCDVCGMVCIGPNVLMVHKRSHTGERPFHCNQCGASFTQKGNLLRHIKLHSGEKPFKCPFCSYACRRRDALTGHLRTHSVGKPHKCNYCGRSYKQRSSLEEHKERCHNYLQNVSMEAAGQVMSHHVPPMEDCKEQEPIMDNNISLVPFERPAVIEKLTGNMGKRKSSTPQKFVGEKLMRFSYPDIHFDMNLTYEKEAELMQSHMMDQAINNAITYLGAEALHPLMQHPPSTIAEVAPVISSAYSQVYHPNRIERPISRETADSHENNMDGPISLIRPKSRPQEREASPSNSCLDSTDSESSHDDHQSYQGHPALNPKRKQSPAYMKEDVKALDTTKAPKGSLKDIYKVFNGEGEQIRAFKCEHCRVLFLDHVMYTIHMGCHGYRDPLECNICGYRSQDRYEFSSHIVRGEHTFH
T3 sequence (Q96SW2 whole entry): as the sequence (Q96SW2 whole entry) above
T3 sequence (Q16531 whole entry partner): as the sequence (Q16531 whole entry partner) above

IKZF3 = target: T4, IKZF3 (Homo sapiens, UniProt Q96SW2+Q9UKT9); test: as above; type: cell-based; details: Western blot, 24 hours of compound treatment, compounds tested at 50 nM and 500 nM (concentration for the table not stated)
T4 construct: effects of the compounds of the present disclosure on the expression of target proteins in cells; endogenous in cells; host or cells: human PBMCs (Milecell Biotechnologies)
T4 sequence (Q9UKT9 whole entry): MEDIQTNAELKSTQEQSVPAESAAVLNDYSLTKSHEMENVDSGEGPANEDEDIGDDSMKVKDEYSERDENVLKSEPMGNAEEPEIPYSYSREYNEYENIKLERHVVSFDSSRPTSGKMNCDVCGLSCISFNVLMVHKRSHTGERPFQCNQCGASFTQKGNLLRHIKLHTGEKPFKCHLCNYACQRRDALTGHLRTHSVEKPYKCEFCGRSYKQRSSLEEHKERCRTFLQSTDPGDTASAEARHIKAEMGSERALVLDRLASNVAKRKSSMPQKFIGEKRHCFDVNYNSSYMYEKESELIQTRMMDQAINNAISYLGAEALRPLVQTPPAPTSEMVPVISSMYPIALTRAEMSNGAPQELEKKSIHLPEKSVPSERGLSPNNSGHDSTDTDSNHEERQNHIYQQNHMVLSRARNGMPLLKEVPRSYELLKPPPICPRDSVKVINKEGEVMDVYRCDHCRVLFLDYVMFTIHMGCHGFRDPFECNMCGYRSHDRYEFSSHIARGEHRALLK
T4 sequence (Q96SW2 whole entry): as the sequence (Q96SW2 whole entry) above
T4 sequence (Q16531 whole entry partner): as the sequence (Q16531 whole entry partner) above

WEE1 = target: T5, WEE1 (Homo sapiens, UniProt P30291+Q96SW2); test: as above; type: cell-based; details: Western blot, 24 hours of compound treatment, compounds tested at 50 nM and 500 nM (concentration for the table not stated)
T5 construct: effects of the compounds of the present disclosure on the expression of target proteins in cells; endogenous in cells; host or cells: human PBMCs (Milecell Biotechnologies)
T5 sequence (P30291 whole entry): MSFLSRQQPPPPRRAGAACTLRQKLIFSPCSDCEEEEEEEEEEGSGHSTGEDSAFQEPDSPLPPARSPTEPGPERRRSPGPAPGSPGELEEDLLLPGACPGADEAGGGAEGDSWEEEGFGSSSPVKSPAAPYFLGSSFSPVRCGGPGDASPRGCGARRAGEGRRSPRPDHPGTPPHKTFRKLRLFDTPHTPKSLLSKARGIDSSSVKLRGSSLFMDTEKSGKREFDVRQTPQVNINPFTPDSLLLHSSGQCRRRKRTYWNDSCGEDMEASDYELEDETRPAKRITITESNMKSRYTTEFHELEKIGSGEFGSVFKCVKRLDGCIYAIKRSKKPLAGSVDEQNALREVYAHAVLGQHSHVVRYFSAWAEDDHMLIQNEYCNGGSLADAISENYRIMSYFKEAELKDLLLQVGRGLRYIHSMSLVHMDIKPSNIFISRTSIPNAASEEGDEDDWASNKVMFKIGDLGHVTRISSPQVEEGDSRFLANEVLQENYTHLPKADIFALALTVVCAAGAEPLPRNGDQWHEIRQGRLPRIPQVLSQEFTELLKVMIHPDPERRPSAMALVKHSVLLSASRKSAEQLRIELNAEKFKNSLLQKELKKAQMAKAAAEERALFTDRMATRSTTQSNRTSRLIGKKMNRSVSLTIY
T5 sequence (Q96SW2 whole entry): as the sequence (Q96SW2 whole entry) above
T5 sequence (Q16531 whole entry partner): as the sequence (Q16531 whole entry partner) above

GSPT1 = test: as above; type: cell-based, Human; details: Western blot, 24 hours of compound treatment, compounds tested at 50 nM and 500 nM (concentration for the table not stated)
[1] = target: T6, human Cereblon WT GST-tagged protein (Homo sapiens, UniProt Q96SW2); test: CRBN-binding affinity, HTRF (CEREBLON BINDING kit); details: CRBN binding, HTRF, 3 hours at room temperature; read-out: HTRF IC50
T6 construct: purchased CISBIO 64BDCRBNPEH
T6 sequence (Q96SW2 whole entry): as the sequence (Q96SW2 whole entry) above

[2] = tested on: Human multiple myeloma cell (MM.1S); test: Tumor cell proliferation inhibition (CellTiter-Meiluncell luminescent cell viability assay); details: Homo sapiens, MM1.S, 96 h, read-out: Inhibitory activity (IC50, nM) on tumor cell proliferation, MM.1S
Procedure: (§1) The tumor cells used herein were cultured in a cell culture medium listed in table 2 at 37°C in an incubator with 5% CO2. Prior to experimentation, all cell lines used were correctly identified by STR profiling, and tested negative for mycoplasma contamination using a mycoplasma detection kit through routine screenings.
(§2) The IC50 values of the compounds of the present disclosure (including the compounds in Table 1 and Examples) were determined using the CellTiter-Meiluncell Luminescent Cell Viability Assay Kit from Dalian Meilun Biotech Co., Ltd. The detailed procedure is as follows: Tumor cells were seeded in 96-well cell culture plates at the densities specified in Table 3. On the following day, the test compounds of the present disclosure were subjected to serial dilution. The dilution can be performed according to one of the following two methods: • (1) The first dilution method: The test compounds of the present disclosure (including the compounds in Table 1 and Examples) were subjected to 5-fold serial dilutions starting from a highest concentration of 2000 µM, resulting in a total of 9 concentrations from high to low (2000, 400, 80, 16, 3.2, 0.64, 0.128, 0.0256, 0.00512 µM). Subsequently, 0.5 µL of the test compound dilution was transferred into the 96-well plate containing the cells, with each well containing 100 µL of cell culture medium. […] Into the 96-well plate, the diluted test compounds and corresponding detection reagents were added, resulting in final test compound concentrations of 500 nM and 10 nM, respectively. The experimental procedure is described below using the diluted 2 µM test compound as an example.
(§3) 0.5 µL of the aforementioned diluted compound of the present disclosure (including the compounds in Table 1 and Examples) was added to the seeded cells in 100 µL of medium, yielding a final test compound concentration of 10 nM. After the cells were treated with the compounds of the present disclosure for a specified period, the cell viability assay reagent was added to the culture medium according to the kit's instructions to determine cell viability. […] All controls were treated using the same procedure as the compounds of the present disclosure. The growth inhibition curves for the compounds of the present disclosure were plotted using Prism GraphPad software, and the IC50 values were calculated therefrom.

[3] = tested on: Human multiple myeloma peripheral blood B lymphocyte cell (RPMI-8226); test: as above; details: RPMI-8226, 96 h; for IC50: read-out: Inhibitory activity (IC50, nM) on tumor cell proliferation, RPMI-8226
[4] = tested on: Human diffuse large B-cell lymphoma cell line: TMD8; test: as above; details: TMD8, 96 h, read-out: Inhibitory activity (IC50, nM) on tumor cell proliferation, TMD8
Procedure: as §1, §2
0.5 µL of the aforementioned diluted compound of the present disclosure (including the compounds in Table 1 and Examples) was added to the seeded cells in 100 µL of medium, yielding a final test compound concentration of 10 nM. […] The growth inhibition curves for the compounds of the present disclosure were plotted using Prism GraphPad software, and the IC50 values were calculated therefrom.

[5] = tested on: Human myeloid monocytic leukemia cell (MV-4-11); test: as above; details: MV4-11, 96 h
[6] = tested on: Human breast cancer cell (MCF-7); test: as above; details: MCF7, 96 h; for IC50: read-out: Inhibitory activity (IC50, nM) on tumor cell proliferation, MCF7
[7] = tested on: Human T cell acute lymphoblastic leukemia cell (CCRF-CEM); test: as above; details: 96 h
Procedure: as §1, §2, §3

[8] = tested on: Human acute myeloid leukemia cell line: Kasumi-1; test: as above; details: Kasumi 1, 96 h
Procedure: as §1, §2, §3

[9] = tested on: Human T lymphocytic leukemia cell line: Jurkat; test: as above; details: 96 h; for IC50: read-out: Inhibitory activity (IC50, nM) on tumor cell proliferation, Jurkat
[10] = tested on: Human monocytic leukemia cell line: THP-1; test: as above; details: THP-1, 96 h
Procedure: as §1, §2, §3

[11] = tested on: Human colon cancer cell line: SW620; test: as above; details: SW-620, 96 h
Procedure: as §1, §2, §3

[12] = tested on: Human malignant melanoma cell line: A375; test: as above; details: A-375, 96 h
Procedure: as §1, §2, §3

[13] = tested on: Human non-small cell lung cancer cell line: NCI-H1975; test: as above; details: NCI-H1975, 96 h, read-out: Inhibitory activity (IC50, nM) on tumor cell proliferation, H1975
Procedure: as §1, §2, §3

[14] = tested on: Human mantle cell lymphoma cell line: JEKO-1; test: as above; details: JeKo-1, 96 h, read-out: Inhibitory activity (IC50, nM) on tumor cell proliferation, JEKO-1
Procedure: as §1, §2, §3

[15] = tested on: Human gastric cancer cell line: MGC803; test: as above; details: MGC-803, read-out: Inhibitory activity (IC50, nM) on tumor cell proliferation, MGC803
Procedure: as §2, §3

[16] = read-out: Inhibition Rate at 10 nM (%)
[17] = read-out: Inhibition Rate at 500 nM (%)

T1 sequence (P48729 whole entry): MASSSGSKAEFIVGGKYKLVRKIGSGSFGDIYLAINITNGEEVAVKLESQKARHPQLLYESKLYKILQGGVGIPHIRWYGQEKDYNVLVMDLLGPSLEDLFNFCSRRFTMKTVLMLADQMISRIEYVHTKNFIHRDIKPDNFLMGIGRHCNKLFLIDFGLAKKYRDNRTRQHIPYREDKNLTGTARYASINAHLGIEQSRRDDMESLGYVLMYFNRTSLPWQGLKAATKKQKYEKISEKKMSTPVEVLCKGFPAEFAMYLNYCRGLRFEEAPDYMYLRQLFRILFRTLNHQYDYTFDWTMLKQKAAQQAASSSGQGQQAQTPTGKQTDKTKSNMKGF
T1 sequence (Q96SW2 whole entry): as the sequence (Q96SW2 whole entry) above
T1 sequence (Q16531 whole entry partner): as the sequence (Q16531 whole entry partner) above

IC50 [1] [µM] | IC50 [2] [nM] | IC50 [3] [nM] | IC50 [4] [nM] | IC50 [6] [nM] | IC50 [9] [nM] | IC50 [13] [nM] | IC50 [14] [nM] | IC50 [15] [nM] | SMILES | CK1α substrate protein remaining % (CK1α) | IKZF 1 substrate protein remaining % (IKZF1) | IKZF2 substrate protein remaining % (IKZF2) | IKZF3 substrate protein remaining % (IKZF3) | Wee1 substrate protein remaining % (WEE1) | GSPT1 substrate protein remaining % (GSPT1) | further results
0.1 to 0.5 | < 5 | 10 to 50 | 100 to 500 | – | – | – | – | – | Cn1cc(C2=CCN(Cc3ccc4c(c3)CN(C3CCC(=O)NC3=O)C4=S)CC2)c2ccc(F)cc21 (centres unmarked) [GT-05247, 3-(5-((4-(6-fluoro-1-methyl-1H-indol-3-yl)-3,6-dihydropyridin-1(2H)-yl)methyl)-1-thioxoisoindolin-2-yl)piperidine-2,6-dione] | A (0% ≤ substrate protein remaining % ≤ 80%) | B (80%< substrate protein remaining %≤ 100%) | A (0% ≤ substrate protein remaining % ≤ 80%) | A (0% ≤ substrate protein remaining % ≤ 80%) | A (0% ≤ substrate protein remaining % ≤ 80%) | A (0% ≤ substrate protein remaining % ≤ 80%) | –
– | 500 to 1000 | 1000 to 5000 | > 10000 | > 10000 | > 10000 | > 10000 | 5000 to 10000 | > 10000 | Nc1cccc2c1C(=O)N(C1CCC(=O)NC1=O)C2=O (centres unmarked) [pomalidomide, reference compound] | – | – | – | – | – | – | inhibition at 0.01 µM [3, 16]: 10 to 20%; inhibition at 0.5 µM [3, 17]: 30 to 40%; inhibition at 0.01 µM [5, 16]: 18 to 25%; inhibition at 0.5 µM [5, 17]: 10 to 18%; inhibition at 0.01 µM [6, 16]: 5 to 10%; inhibition at 0.5 µM [6, 17]: 0 to 5%; inhibition at 0.01 µM [7, 16]: 0 to 5%; inhibition at 0.5 µM [7, 17]: 0 to 5%; inhibition at 0.01 µM [8, 16]: -10 to -5%; inhibition at 0.5 µM [8, 17]: -5 to 0%; inhibition at 0.01 µM [9, 16]: 10 to 20%; inhibition at 0.5 µM [9, 17]: 10 to 20%; inhibition at 0.01 µM [10, 16]: 10 to 20%; inhibition at 0.5 µM [10, 17]: 10 to 20%; inhibition at 0.01 µM [11, 16]: 20 to 30%; inhibition at 0.5 µM [11, 17]: 20 to 30%; inhibition at 0.01 µM [12, 16]: 10 to 20%; inhibition at 0.5 µM [12, 17]: 5 to 10%
0.5 to 1 | 5 to 10 | – | – | 100 to 500 | 10 to 50 | 50 to 100 | 50 to 100 | 100 to 500 | O=C1CCC(N2Cc3cc(CN4CCC(c5cccc(Cl)c5Cl)CC4)ccc3C2=S)C(=O)N1 (centres unmarked) [GT-05150, 3-(5-((4-(2,3-dichlorophenyl)piperidin-1-yl)methyl)-1-thioxoisoindolin-2-yl)piperidine-2,6-dione] | B (80%< substrate protein remaining %≤ 100%) | A (0% ≤ substrate protein remaining % ≤ 80%) | A (0% ≤ substrate protein remaining % ≤ 80%) | B (80%< substrate protein remaining %≤ 100%) | A (0% ≤ substrate protein remaining % ≤ 80%) | A (0% ≤ substrate protein remaining % ≤ 80%) | –

SMILES | IC50 [1] [µM] | IC50 [2] [nM] | IC50 [3] [nM] | IC50 [4] [nM] | IC50 [6] [nM] | IC50 [9] [nM] | IC50 [13] [nM] | IC50 [14] [nM] | IC50 [15] [nM] | CK1α substrate protein remaining % (CK1α) | IKZF 1 substrate protein remaining % (IKZF1) | IKZF2 substrate protein remaining % (IKZF2) | IKZF3 substrate protein remaining % (IKZF3) | Wee1 substrate protein remaining % (WEE1) | GSPT1 substrate protein remaining % (GSPT1) | further results
O=C1CCC(N2Cc3cc(CN4CCC(c5c[nH]c6cc(F)ccc56)CC4)ccc3C2=S)C(=O)N1 (centres unmarked) [GT-05243, 3-(5-((4-(6-fluoro-1H-indol-3-yl)piperidin-1-yl)methyl)-1-thioxoisoindolin-2-yl)piperidine-2,6-dione] | < 0.1 | < 5 | 10 to 50 | 100 to 500 | – | – | – | – | – | B (80%< substrate protein remaining %≤ 100%) | B (80%< substrate protein remaining %≤ 100%) | A (0% ≤ substrate protein remaining % ≤ 80%) | A (0% ≤ substrate protein remaining % ≤ 80%) | A (0% ≤ substrate protein remaining % ≤ 80%) | A (0% ≤ substrate protein remaining % ≤ 80%) | –
